Measurements taken from patent US12022829B2, “Water-dispersible fine particle” (TOYOBO CO., LTD., priority 2018, dated 2024).

What was measured:
Assay type in all cases: cell-based
P. fluorescens biofilm [1] = experiment: Anti-biofilm coat test using fine particle suspension (Test example 2); settings: water washing, cultivation 30° C. 48 hours, CV staining
Description: (§1) A test piece was taken out after the cultivation and washed using normal saline, and a biofilm amount adhered on the test piece surface was measured. The biofilm amount was measured by CV (crystal violet) staining method. Specifically, a test piece was immersed in 0.1 wt % CV aqueous solution for 30 minutes, an excessive CV was washed out using water, an extraction from the stained region was carried out using 98% ethanol, and an absorbance of 500 nm was measured.
P. fluorescens, which is a gram-negative bacillus having high productivity of a biofilm, was used for evaluating an anti-biofilm property. A dried standard product of P. fluorescens was obtained as NBRC No. 14160 and recovered by the following method. DAIGO growth medium 802 (8.4 g) manufactured by Wako Pure Chemical Corporation and 300 mL of purified water were weighed and added into a beaker, and the mixture was stirred at room temperature for about 30 minutes for dispersion. A recovering liquid was sterilized by an autoclave, 0.2 mL of the recovering liquid was taken out using a micropipette and added into an ample of a dried standard product of P. fluorescens, and the mixture was stirred. Separately, 25 mL of SCD broth (Soybean-Casein Digest Broth) manufactured by Wako Pure Chemical Corporation was added in a flask, and […] of the above P. fluorescens suspension was subsequently added thereto. The bacterium was cultivated at 30° C. and a velocity of 150 rpm in a constant temperature incubator shaker for 24 hours for cultivation. After the cultivation, the bacterium was added in 80% glycerol, and the bacterium liquid was preserved at −80° C.
A fine particle suspension of ε-PL was prepared by using the GPE-ized polycarboxylic acid of Production examples 1 to 5 as a test sample liquid for an anti-biofilm coat. A fine particle suspension was prepared by mixing the both of the aqueous solutions of the GPE-ized polycarboxylic acid and ε-PL so that a concentration of the GPE-ized polycarboxylic acid in the fine particle suspension became 0.5 wt % and a concentration of ε-PL became 0.045 wt %. For comparison, a simple ε-PL aqueous solution, an IPMP (4-isopropyl-3-methylphenol, manufactured by Wako Pure Chemical Corporation) ethanol solution and a silver nano particle aqueous suspension manufactured by JAPAN ION Corporation having concentrations of 0.045 wt % were respectively produced. […] The test piece coated with each drug was stirred at 25° C. and 350 rpm for 1 minute for washing with water as a water section environment. The test piece after the water washing was immersed in a broth containing the bacterium liquid prepared in Test example 1, and a biofilm was formed by a cultivation at 30° C. for 48 hours. A concentration was adjusted to 10 cfu/mL by diluting the P. fluorescens liquid with SCD broth. The test piece was taken cut after the cultivation, washed using normal saline, and an amount of a biofilm adhered on the surface of the test piece was measured. A biofilm inhibition rate was calculated by the following formula: Biofilm inhibition rate (%)=(measurement value of untreated test piece−measurement value of test piece coated with test liquid)/(measurement value of untreated test piece)×100

[2] = test system: P. fluorescens in biofilm; experiment: Biofilm bactericidal property test (Test example 5); settings: untreated 40000 cfu/well
Description: A number of a viable bacterium in the biofilm was measured by adding 1 mL of normal saline to the surface material on which a biofilm was adsorbed, destroying the biofilm using a ultrasonic washing machine, collecting an elution liquid, diluting the elution liquid from 10^2 to 10^8 using normal saline, inoculating the diluted solution into petri Film™ broth manufactured by 3M, performing cultivation at 30° C. for 1 week, and counting colonies.
After the test drug was contacted with a biofilm, a bactericidal property against the bacterium in the biofilm was tested. In a microplate of Test example 3 in which a biofilm was formed, 1 mL of each test drug was added for an immersion for 1 minute, 10 minutes, 30 minutes and 60 minutes. The test drug was removed after the lapse of contact time, and the reside was immediately washed using 1 mL of normal saline two times. In the microplate, 1 mL of normal saline was added. The bacterium was eluted in the normal saline by treating the mixture for 1 minute using an ultrasound bath to destroy the biofilm. The eluate was diluted from 10^2 to 10^8 using sterilized normal saline, and inoculated to Petrifilm™ broth manufactured by 3M for a cultivation at 30° C. for 1 week. Then, the number of colonies was counted and the number of viable bacteria was measured. The number of viable bacteria was 40000 cfu/well in the untreatment case; on the one hand, it was confirmed that the bacteria number in a biofilm was reduced by an immersion in the fine particle suspension in Examples 37 to 39 as the number of viable bacteria was reduced.

P. fluorescens biofilm [3] = experiment: Biofilm inhibition test after immersion in (contact with) drug (Test example 4); settings: then re-cultivation in SCD broth 30° C. 24 hours, CV staining
Description: as §1
In a microplate of Test example 3 in which a biofilm was formed, 1 mL of each test drug was added for an immersion for 1 minute, 10 minutes, 30 minutes or 60 minutes. The test drug was removed after the contact time, and the residue was washed using 1 mL of normal saline two times. In the microplate, 1 mL of SCD broth was added for a cultivation at 30° C. for 24 hours to form a biofilm again and to evaluate a re-inhibition property of a biofilm. An amount of a biofilm was measured after the cultivation. An amount of a biofilm was measured by CV staining method described in Test example 2. A biofilm inhibition rate was calculated by the following formula: Biofilm inhibition rate (6)=(measurement value of untreatment−measurement value after immersion in test liquid)/(measurement value of untreatment)×100

P. fluorescens biofilm [4] = experiment: Biofilm removing effect test after immersion in drug (Test example 3); settings: 1-week biofilm in 48-well microplate, CV staining
Description: as §1
SCD broth containing the bacterial liquid of P. fluorescens having a concentration of 10^6 cfu/mL prepared in Test example 1 was added to 48-well microplate manufactured by Sumitomo Bakelite Co., Ltd. for cultivation at 30° C. for 1 week to form a biofilm in the plate. The bacterial liquid as supernatant was removed, and the residue was rinsed using a sterilized normal saline and dried. The test liquid was prepared by a similar method to Test example 2. Specifically, a fine particle suspension was prepared so that a concentration of GPE-ized polycarboxylic acid became 0.5 wt % and a concentration of ε-PL became 0.04 wt % in the suspension. In a microplate in which a biofilm was formed, 1 mL of each test liquid was added to immerse the biofilm for 1 minute, 10 minutes, 30 minutes or 60 minutes to evaluate a biofilm removing effect at every immersion (contact) time. The test drug was removed after a lapse of the immersion (contact) time, and the residue was immediately washed using 1 mL of normal saline two times and dried to measure a biofilm amount by CV staining method described in Test example 2. A biofilm removing rate was calculated by the following formula: Biofilm removing rate (%)=(measurement value of untreatment−measurement value after immersion in test liquid)/(measurement value of untreatment)×100

[5] = adhesion amount 0.01 μg/cm^2 on polyvinyl chloride test piece
[6] = adhesion amount 0.04 μg/cm^2 on polyvinyl chloride test piece
[7] = adhesion amount 0.12 μg/cm^2 on polyvinyl chloride test piece
[8] = adhesion amount 0.02 μg/cm^2 on polyvinyl chloride test piece
[9] = adhesion amount 0.08 μg/cm^2 on polyvinyl chloride test piece

Cc1cc(O)ccc1C(C)C [compound 17, 4-isopropyl-3-methylphenol]
Biofilm inhibition rate (P. fluorescens biofilm [1]; [5]): 41%

Cc1cc(O)ccc1C(C)C [compound 19, 4-isopropyl-3-methylphenol]
Biofilm inhibition rate (P. fluorescens biofilm [1]; [6]): 57%

ε-poly-L-lysine [compound 11]
Biofilm inhibition rate (P. fluorescens biofilm [1]; [7]): 57%

ε-poly-L-lysine [compound 25]
Number of viable bacteria in biofilm every contact time ([2]; contact time 1 min): 1200 cfu/well
Number of viable bacteria in biofilm every contact time ([2]; contact time 10 min): 1200 cfu/well
Number of viable bacteria in biofilm every contact time ([2]; contact time 30 min): 1200 cfu/well
Number of viable bacteria in biofilm every contact time ([2]; contact time 60 min): 1200 cfu/well

ε-poly-L-lysine [compound 8]
Biofilm inhibition rate (P. fluorescens biofilm [1]; [8]): 29%

Cc1cc(O)ccc1C(C)C [compound 21, 4-isopropyl-3-methylphenol]
Biofilm inhibition rate (P. fluorescens biofilm [1]; [7]): 75%

ε-poly-L-lysine [compound 10]
Biofilm inhibition rate (P. fluorescens biofilm [1]; [9]): 52%

Cc1cc(O)ccc1C(C)C [compound 20, 4-isopropyl-3-methylphenol]
Biofilm inhibition rate (P. fluorescens biofilm [1]; [9]): 66%

Cc1cc(O)ccc1C(C)C [compound 27, 4-isopropyl-3-methylphenol]
Number of viable bacteria in biofilm every contact time ([2]; contact time 1 min): 1900 cfu/well
Number of viable bacteria in biofilm every contact time ([2]; contact time 10 min): 800 cfu/well
Number of viable bacteria in biofilm every contact time ([2]; contact time 30 min): 800 cfu/well
Number of viable bacteria in biofilm every contact time ([2]; contact time 60 min): 800 cfu/well

ε-poly-L-lysine [compound 7]
Biofilm inhibition rate (P. fluorescens biofilm [1]; [5]): 5%

Cc1cc(O)ccc1C(C)C [compound 18, 4-isopropyl-3-methylphenol]
Biofilm inhibition rate (P. fluorescens biofilm [1]; [8]): 48%

Cc1cc(O)ccc1C(C)C [compound 24, 4-isopropyl-3-methylphenol]
Removal rate of biofilm every contact time (Test example 4) (P. fluorescens biofilm [3]; contact time 1 min): 22%
Removal rate of biofilm every contact time (Test example 4) (P. fluorescens biofilm [3]; contact time 10 min): 33%
Removal rate of biofilm every contact time (Test example 4) (P. fluorescens biofilm [3]; contact time 30 min): 37%
Removal rate of biofilm every contact time (Test example 4) (P. fluorescens biofilm [3]; contact time 60 min): 57%
Removal rate of biofilm every contact time (Test example 3) (P. fluorescens biofilm [4]; contact time 1 min): 60%
Removal rate of biofilm every contact time (Test example 3) (P. fluorescens biofilm [4]; contact time 10 min): 56%
Removal rate of biofilm every contact time (Test example 3) (P. fluorescens biofilm [4]; contact time 30 min): 61%
Removal rate of biofilm every contact time (Test example 3) (P. fluorescens biofilm [4]; contact time 60 min): 52%

ε-poly-L-lysine [compound 22]
Removal rate of biofilm every contact time (Test example 4) (P. fluorescens biofilm [3]; contact time 1 min): 22%
Removal rate of biofilm every contact time (Test example 4) (P. fluorescens biofilm [3]; contact time 10 min): 38%
Removal rate of biofilm every contact time (Test example 4) (P. fluorescens biofilm [3]; contact time 30 min): 40%
Removal rate of biofilm every contact time (Test example 4) (P. fluorescens biofilm [3]; contact time 60 min): 45%
Removal rate of biofilm every contact time (Test example 3) (P. fluorescens biofilm [4]; contact time 1 min): 87%
Removal rate of biofilm every contact time (Test example 3) (P. fluorescens biofilm [4]; contact time 10 min): 87%
Removal rate of biofilm every contact time (Test example 3) (P. fluorescens biofilm [4]; contact time 30 min): 84%
Removal rate of biofilm every contact time (Test example 3) (P. fluorescens biofilm [4]; contact time 60 min): 83%

ε-poly-L-lysine [compound 9]
Biofilm inhibition rate (P. fluorescens biofilm [1]; [6]): 45%
